Square brackets hold non-standard residues; d marks the D form. Peptide text beside a SMILES is read from it. Aib = CC(C)(N)C(=O)O
What was measured:
Oral bioavailability = conditions: in vivo, rodents
Description: In some embodiments a pharmaceutical composition of the invention is an oral administration form. […] In some embodiments, the oral availability of the pharmaceutical composition of the invention is in the range of 10%. In another embodiment, the oral availability of the pharmaceutical composition of the invention is above 10%. In some embodiments the pharmaceutical composition is administered once a day, twice a day or three times a day.

[1] = Stability test of the crystalline salt at 50° C.; assay type: physicochemical; conditions: 48 hours
[2] = Hygroscopicity at 58-60% relative humidity; assay type: physicochemical; conditions: 20-25° C.
[3] = DSC heating above the melting point, residue analyzed by TLC; assay type: physicochemical; conditions: DSC heating cycle
Source text: During the second heating cycle the peak of melting was missing, only the high temperature decomposition was observed. […]

[4] = 50° C.

Row | Compound | bioavailability (Oral bioavailability) | solubility of crystalline forms (Solubility in water) | Solubility at 24° C. (Solubility in water; deionized water, 24° C., stirred 1 hr, filtered, filtrate evaporated) | solubility in water (concentration of solution) (Solubility in water; deionized water, room temperature) | stability of crystalline salt (degradation) [1] | hygroscopicity: weight increase of crystals ([2]; 24 hours) | hygroscopicity: weight increase of crystals ([2]; 48 hours) | decomposition after heating above the melting point [3] | stability of 70 w/w % aqueous solution (degradation) ([4]; 48 hours) | thermal stability of 70 w/w % solution in water (decomposition by TLC) ([4]; N2 atmosphere, 24 hrs)
1 | CC(C)(NC(=O)[C@H](N)Cc1c[nH]c2ccccc12)C(=O)O [compound (1)] (H-[dW]-[Aib]-OH) | ~5% | very poor solubility | 1.3 w/w % | 1.3 w/w % |  |  |  |  |  | 
2 | CC(C)(NC(=O)[C@H](N)Cc1c[nH]c2ccccc12)C(=O)O [UB-18813] (H-[dW]-[Aib]-OH) |  |  |  |  | no degradation was observed | 2.64% | 3.4% | no decomposition | no degradation was observed | No traces of decomposition

Source: US12703685B2, “Crystalline forms of solvates of tryptophan derivatives, compositions comprising them and uses thereof” (GALIMEDIX THERAPEUTICS INC., priority 2020, dated 2026)
